The values that follow come from article PMC6269716 (2013).

SMILES strings stand for the structures.

The subject of assay [1] is HTelo21 (DNA, G4) GGGTTAGGGTTAGGGTTAGGG
Nature of the assay: ESI-MS peak intensities. The conditions noted are these: NH4+ (150 mM ammonium acetate); 15% methanol added before injection; 5 µM DNA; site 1 of 2.

Assay [2] deals with DK66 (DNA, duplex) CGCGAATTCGCG
Nature of the assay: ESI-MS peak intensities. Conditions: NH4+ (150 mM ammonium acetate), 15% methanol added before injection, 5 µM DNA.

For assay [3], the system named is F21T (HTelo-21, FRET) (DNA, G4) GGGTTAGGGTTAGGGTTAGGG
The experiment in a line: FRET melting. The conditions noted are these: K+ (60 mM); potassium cacodylate pH 7.4; 1 µM compound; 200 nM DNA.

Assay [4] concerns T Loop (DNA, hairpin, hexaethyleneglycol (HEG) linker between nucleotides 10 and 11 as hairpin loop) TATAGCTATATATAGCTATA
Nature of the assay: FRET melting. Conditions: K+ (60 mM); potassium cacodylate pH 7.4; 1 µM compound; 200 nM DNA.

The test system of assay [5] is BCL2 (FRET) (DNA, G4) GGGCGCGGGAGGAAGGGGGCGGG
The experiment in a line: FRET melting. The conditions noted are these: K+ (60 mM); potassium cacodylate pH 7.4; 1 µM compound; 200 nM DNA.

Assay [6] concerns CKIT1 (c-kit-1, FRET) (DNA, G4) AGAGGGAGGGCGCTGGGAGGAGGGGCT
Nature of the assay: FRET melting. The conditions noted are these: K+ (60 mM); potassium cacodylate pH 7.4; 1 µM compound; 200 nM DNA.

For the molecule `CN1CCN(CCCCOc2ccc3c(=O)c4ccc(OCCCCN5CCN(C)CC5)cc4oc3c2)CC1`, the figures for the “Log K1” value in assay [1] and in assay [2] (site 1 of 2) were 4.3 ± 0.1 and 3.5 ± 0.1, respectively.
The corresponding values for `O=C(CCCCCN1CCCCC1)c1ccc2oc3ccc(C(=O)CCCCCN4CCCCC4)cc3c(=O)c2c1` are 4.4 ± 0.1 and 3.7 ± 0.1.
The corresponding values for `CN(C)CCCCOc1ccc2c(=O)c3ccc(OCCCCN(C)C)cc3oc2c1` are 4.7 ± 0.1 and 3.6 ± 0.1.
The corresponding values for `CN1CCN(CCCCCC(=O)c2ccc3c(c2)Cc2cc(C(=O)CCCCCN4CCN(C)CC4)ccc2O3)CC1` are 4.4 ± 0.1 and 3.7 ± 0.1.
On to `CN(C)CCCCCC(=O)c1ccc2oc3ccc(C(=O)CCCCCN(C)C)cc3c(=O)c2c1`, for which the “Log K1” value in assay [1] was found to be 4.0 ± 0.1; in assay [2] (site 1 of 2) it was 3.3 ± 0.2.
As for `O=c1c2ccc(OCCCCN3CCCCC3)cc2oc2cc(OCCCCN3CCCCC3)ccc12`, the results for the “Log K1” value in assay [1] and in assay [2] were 4.7 ± 0.1 and 3.4 ± 0.1, respectively.
As to `O=C(CCCCCN1CCCCC1)c1ccc2c(c1)C(CCCC1c3cc(C(=O)CCCCCN4CCCCC4)ccc3Oc3ccc(C(=O)CCCCCN4CCCCC4)cc31)c1cc(C(=O)CCCCCN3CCCCC3)ccc1O2`, the “Log K1” value in assay [1] is recorded as 5.8 ± 0.1; in assay [2] (site 1 of 2), 3.9 ± 0.1.
What is called ΔTm is the shift of the melting midpoint relative to a reference. `O=C(CCCCCN1CCCCC1)c1ccc2c(c1)Cc1cc(C(=O)CCCCCN3CCCCC3)ccc1O2`: the “Log K1” value in assay [1] worked out at 4.7 ± 0.1; in assay [2] (site 1 of 2) it was 3.8 ± 0.2. Further, the ΔTm in assay [3] was 1.3 ± 0.1 °C; in assay [4] it was 0.4 ± 0.1 °C; in assay [5], 0.7 ± 0.1 °C; in assay [6], 1.0 ± 0.1 °C.
Consider `CN(C)CCCCCC(=O)c1ccc2c(c1)C(CCCCN(C)C)c1cc(C(=O)CCCCCN(C)C)ccc1O2`, for which the “Log K1” value is recorded as 5.2 ± 0.4 in assay [1] and 3.6 ± 0.3 in assay [2] (site 1 of 2). The ΔTm in assay [3] amounted to 11.9 ± 0.1 °C; in assay [4], 2.2 ± 0.1 °C; in assay [5], 4.8 ± 0.1 °C; in assay [6], 7.9 ± 0.1 °C.
As to `CN(C)CCCCCC(=O)c1ccc2c(c1)Cc1cc(C(=O)CCCCCN(C)C)ccc1O2`, the “Log K1” value came out at 4.6 ± 0.1 in assay [1] and 3.4 ± 0.2 in assay [2] (site 1 of 2).
Turning to `CN1CCN(CCCCCC(=O)c2ccc3oc4ccc(C(=O)CCCCCN5CCN(C)CC5)cc4c(=O)c3c2)CC1`, the “Log K1” value in assay [1] was found to be 4.1 ± 0.1; in assay [2] (site 1 of 2), 1.8 ± 0.2.
